Test results from US11642320B2, “Nanoparticulate prodrugs” (priority 2016, dated 2023).

Legend:
TNFα = test: Cytokine release from LPS-treated macrophages: TNFα; format: cell-based, mouse; conditions: RAW 264.7, LPS 0.1 μg/mL, 24 hours; 100 μg/ml DXP or same equivalent concentration (82 μg/ml dexamethasone phosphate)
Experimental: (§1) For the cytokine release experiment, the RAW 264.7 cells were seeded in 24-well plates at a cellular density of 4×10^4 cells/well in culture medium and they were left in the incubator for 48 hours to reach 80% confluency. Then, the medium was replaced by fresh medium alone or fresh medium with LPS at 0.1 μg/mL, and the plates were incubated another 3 hours. Afterwards, the “standard” nanoparticles produced by emulsification-solvent evaporation at three concentrations: 1, 10 and 100 μg/mL of DXP and free dexamethasone phosphate at 82 μg/ml, which correspond to 100 μg/ml DXP considering molecular weight ratio, were added to some wells. Culture medium alone was used as negative control and LPS 0.1 μg/mL as positive control.
(§2) After 24 hours of incubation with the treatments, the supernatants were collected and frozen at −20° C. until the analysis was performed. The cells were detached and counted.
(§3) The mouse inflammatory cytokines TNFα, MCP-1, IL-10 and IL-6 were quantified using a Cytometric Beads Array (CBA) detection kit (BD Biosciences, USA). This study was performed in triplicate.

[1] = tested on: pro-inflammatory cytokine release, raw264.7 cells; test: Control cytokine release assay without LPS treatment; format: cell-based, mouse; conditions: raw264.7 cells without any LPS treatment
Experimental: as §3
This confirms that the developed nanoparticles are suitable for anti-inflammatory treatment as expected.

IL-6 = test: Cytokine release from LPS-treated macrophages: IL-6; format: cell-based, mouse; conditions: RAW 264.7, LPS 0.1 μg/mL, 24 hours
Experimental: as §1, §2, §3

[2] = Pharmacokinetics in plasma after intravenous injection; set-up: species or system mice; conditions: male, DBA/lOlaHsd, mouse, in vivo, 12 mg/kg
Experimental: Nanoparticles were prepared by emulsion-evaporation as described above and were diluted in PBS to obtain a final concentration of 2.5 mg/ml DXP, which corresponds to 1.55 mg/ml dexamethasone base. […] DXM. DBA/lOlaHsd male mice aged of 9 weeks (Envigo) were divided into two groups. One received the nanoparticle suspension and the other received the control, administration was carried out by intravenous injection in the tail vein at 12 mg/kg eq. DXM. For each group, 11 pharmacokinetic time points were performed with 7 mice per point, from 10 min to 48 hours. Blood sampling was achieved by terminal cardiac puncture using a 25G needle while mice were previously anesthetized with a lethal dose of pentobarbital. Immediately after, blood was centrifuged to recover plasma which was stored at −80° C. For every time point, 5 mice out of 7 underwent organs sampling after cardiac puncture. Liver, spleen, kidneys and lungs were removed and stored at −80° C.
To achieve quantification of DXM and DXP in plasma, an extraction process was developed. 100 μl of plasma samples were introduced into centrifugation tubes and 100 μl of the internal standart at 4 μg/ml in acetonitrile was added and vortexed during 30 seconds. 3 ml of a mixture chloroform/methanol: 9/1 (v/v) was added and tubes were vortexed vigorously 3 minutes. Centrifugation were performed at 3500 rpm, 30 min. Organic phase was recovered and evaporated using an evaporator under gas flow. Dried molecules were dissolved in 200 μl acetonitrile and this sample was analyzed by HPLC-UV. Calibration curves of DXP and DXM were linear, respectively in the range 0.5-100 μg/ml (R^2=0.9997, y=0.2199x−0.0165) and 0.1-100 μg/ml (R^2=0.9974, y=1.056x+0.1445). Regarding short time points (10 min, 20 min, 40 min), DXP and DXM concentrations were above the linearity range of the calibration curve. A second calibration curve for each molecule was set up, beginning with 50 μl plasma completed to 100 μl with milliQ water. Following stages were the same than previously described. Calibration curves “50 μl plasma” of DXP and DXM were linear, respectively in the range 50-800 μg/ml (R^2=0.9808, y=0.2229x−3.2128) and 20-400 μg/ml (R^2=0.9986, y=0.7178x−0.059). Internal standard was testosterone decanoate for DXP and dexamethasone acetate for DXM quantification.

C[C@@H]1C[C@H]2[C@@H]3CCC4=CC(=O)C=C[C@]4(C)[C@@]3(F)[C@@H](O)C[C@]2(C)[C@@]1(O)C(=O)COP(=O)(O)O [DSP, dexamethasone sodium phosphate]
TNFα release (TNFα): no effect detected | induction of pro-inflammatory cytokine release [1]: neither DXP nanoparticles nor free drug induce pro-inflammatory cytokine release | IL-6 release (IL-6): No significant reduction | AUC0→t [2]: 18755 µg·min/mL | C0 [2]: 22400 ng/mL | Clearance [2]: 0.0046 mL/min | Cmax [2]: 22100 ng/mL | MRT [2]: 45 h | Tmax [2]: 0.167 h | Vd [2]: 12.50 mL | plateau of DXM in plasma [2]: around 10 % of the injected dose | t1/2 [2]: 28.8 h
